Source: patent publication US20080207650A1, “Chemical Compounds 636” (priority 2007, published 2008)

Molecular target: recombinant Human Phosphodiesterase B2 (PDE4B2) (Homo sapiens, UniProt Q07343)
Assay: Human Phosphodiesterase B2 Radiometric Assay
Format: biochemical
Conditions: SPA assay, 0.1 μg/mL recombinant PDE4B2, 8 nM [3H]cyclic AMP, preincubated 30 min at 30 C, reaction 20 minutes; read-out: PDE4B2 pIC50 (converted)
Protocol: Human Phosphodiesterase B2 Radiometric Assay
The assay uses recombinant Human Phosphodiesterase B2 (PDE4B2) produced in house (PrAZL0163), stored at −20° C. This assay is based on the observation that 5′AMP, the product of the reaction catalysed by PDE4, binds preferentially to yttrium silicate SPA beads (Amersham Biosciences, UK) compared to the substrate, cAMP. Compounds at the appropriate concentration were preincubated at 30 C for 30 min with an assay buffer containing 50 mM HEPES (pH 7.5), 8.3 mM MgCl2, 1.7 mM EGTA, 0.01% (w/v) Brij® 35 and 0.1 μg/mL recombinant PDE4B2. The reaction was started by the addition of [3H]cyclic AMP to give a final concentration of 8 nM, and was stopped 20 minutes after the addition of the substrate by the addition of yttrium silicate SPA beads containing 18 mM Zn SO4. Bound [3H]cyclic AMP was measured using a Topcount NXT (Packard Bioscience, UK). IC50 values (presented in Table I) were determined using Xlfit3 curve fitting, using model 205.

Chain of recombinant Human Phosphodiesterase B2 (PDE4B2) (Q07343 1-564 isoform Q07343-2): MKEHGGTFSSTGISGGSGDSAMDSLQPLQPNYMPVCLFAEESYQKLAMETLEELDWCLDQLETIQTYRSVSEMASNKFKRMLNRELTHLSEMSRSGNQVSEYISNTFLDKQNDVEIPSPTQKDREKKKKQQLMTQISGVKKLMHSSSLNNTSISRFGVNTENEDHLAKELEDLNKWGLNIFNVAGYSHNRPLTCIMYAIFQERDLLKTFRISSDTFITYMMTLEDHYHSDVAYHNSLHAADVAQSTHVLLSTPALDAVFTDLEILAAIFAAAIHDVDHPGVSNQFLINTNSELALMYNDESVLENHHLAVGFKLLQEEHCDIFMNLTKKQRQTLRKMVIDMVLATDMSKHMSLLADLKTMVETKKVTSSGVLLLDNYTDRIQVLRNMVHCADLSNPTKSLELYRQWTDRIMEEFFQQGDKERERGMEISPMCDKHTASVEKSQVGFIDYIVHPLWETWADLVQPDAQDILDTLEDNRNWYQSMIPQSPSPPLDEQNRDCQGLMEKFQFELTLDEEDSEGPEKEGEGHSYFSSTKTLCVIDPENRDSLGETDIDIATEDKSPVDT

Question: With `O=C(CN1CCN(Cc2ccccc2)CC1)NC1CCC(n2c(=O)c3cc(F)cnc3n(C3CCSCC3)c2=O)CC1` (stereo not shown) [Example 10, 2-(4-benzylpiperazin-1-yl)-N-[4-(9-fluoro-2,4-dioxo-5-tetrahydrothiopyran-4-yl-3,5,7-triazabicyclo[4.4.0]deca-6,8,10-trien-3-yl)cyclohexyl]acetamide] as the molecule, how does the IC50 read?
Answer: Its IC50 is 0.0794 nM.

Question: How did the IC50 turn out when `CN1CCN(Cc2ccc(C(=O)NC3CCC(n4c(=O)c5cc(F)cnc5n(C5CCSCC5)c4=O)CC3)cc2)CC1` (stereo not shown) [Example 6, N-[4-(9-fluoro-2,4-dioxo-5-tetrahydrothiopyran-4-yl-3,5,7-triazabicyclo[4.4.0]deca-6,8,10-trien-3-yl)cyclohexyl]-4-[(4-methylpiperazin-1-yl)methyl]benzamide] was run?
Answer: The IC50 was 3.16 nM.

Question: With `O=C(CN1CCN(C(=O)Cc2ccccc2)CC1)NC1CCC(n2c(=O)c3cc(F)cnc3n(C3CCSCC3)c2=O)CC1` (stereo not shown) [Example 24, N-[4-(9-fluoro-2,4-dioxo-5-tetrahydrothiopyran-4-yl-3,5,7-triazabicyclo[4.4.0]deca-6,8,10-trien-3-yl)cyclohexyl]-2-[4-(2-phenylacetyl)piperazin-1-yl]acetamide] as the molecule, how does the IC50 read?
Answer: The IC50 was 2 nM.

Question: `NCC1CCc2nc(C(=O)N[C@H]3CC[C@@H](n4c(=O)c5cc(F)cnc5n(C5CCSCC5)c4=O)CC3)cn2C1` (stereo partly drawn) [Example 3, 6-(aminomethyl)-N-{cis-4-[6-fluoro-2,4-dioxo-1-(tetrahydro-2H-thiopyran-4-yl)-1,4-dihydropyrido[2,3-d]pyrimidin-3(2H)-yl]cyclohexyl}-5,6,7,8-tetrahydroimidazo[1,2-a]pyridine-2-carboxamide] was tested. Which IC50 did it give?
Answer: Its IC50 is 6.31 nM.
